Earlier results in paper PMC9179904 (Cancers, 2022).

What was measured:
[1] = system: PC-3 PIP and LNCaP tumors; set-up: method as in PMID 34402925
[2] = set-up: method as in PMID 7938477, PMID 9935073

| Compound | Tumor uptake, PC-3 PIP higher than LNCaP tumors [1] | Internalized alpha particles needed to decrease survival to 37–50% [2] |
| --- | --- | --- |
| O=C([O-])CN1CCN(CC(=O)[O-])CCN(CC(=O)NCC2CCC(C(=O)N[C@@H](Cc3ccc4ccccc4c3)C(=O)NCCCC[C@H](NC(=O)N[C@@H](CCC(=O)O)C(=O)O)C(=O)O)CC2)CCN(CC(=O)[O-])CC1.[177Lu+3] (stereo partly drawn) [^177Lu-PSMA-617] | 6–10 fold | – |
| S=C([S-])N1CCCC1.S=C([S-])N1CCCC1.[Pb+2] [^212Pb(PDC)2] | – | 11 |
| ^213Bi-CHX-A-DTPA-HuM195m | – | 1 |
